Where two headings read alike, the source gives them in different places.
How the values were obtained:
[1] = clinical study in subjects with moderate to severe COPD; format: in vivo, human; settings: subjects with moderate to severe COPD, 3, 10, 30 mg, 12 weeks
Description: This study, illustrated schematically in FIG. 4, is a double-blind, placebo-controlled, randomized, two-part study in subjects with moderate to severe COPD. Part 1 is a double-blind, placebo-controlled, randomized, rising-dose study consisting of four treatment groups enrolled in three cohorts (FIG. 4A). The treatment period for each cohort is 12 weeks in duration. […] After completing the safety analyses for Part 1 for Cohorts 1-3, Part 2 is conducted as detailed below. Part 2 is a double-blind, placebo-controlled, randomized, parallel group study consisting of four treatment groups enrolled as one cohort (FIG. 4B). The treatment period for Cohort 4 is 12 weeks in duration. […] Efficacy analyses are based solely on data collected from Part 2, Cohort 4 wherein the primary efficacy parameters measured are changes from Baseline in FEV1 and changes from Baseline in SCDS, both examined as longitudinal averages over the 12-week treatment period. […]

[2] = both, human, in vivo
[3] = system: histological changes in arthritic joints; assay: histological changes in arthritic joints, prolonged treatment; format: in vivo; settings: rats
Source text: (§1) WO 02/083624 describes this compound (as Examples 360.31 and 405), process of making the same, as well as treatment of chemokine-related diseases and cancer using the same. Likewise, WO 03/080053 describes the treatment of chemokine-related diseases using this compound.

[4] = system: carrageenan-induced paw edema; assay: carrageenan-induced paw edema; format: in vivo; settings: rats, compared with NSAIDs
Source text: as §1

clinical = settings: both, human
[5] = clinical study (ii): single-dose 30 mg, fasted or fed subjects, Formulation 1 capsules; format: in vivo, human; settings: single oral dose 30 mg; for Cmax / AUC / half-life / Tmax: both sexes, human, plasma, po, 30 mg; for Cmax / AUC / half-life / Tmax / Tf Mean: healthy subjects; for half-life: read-out: t1/2 Mean; for Tmax: read-out: Tmax Median
[6] = clinical study (i): single-dose oral pharmacokinetics, Formulation 1 capsules; format: in vivo, human; settings: for AUC / Cmax / Tmax / half-life: both sexes, human, plasma; for AUC: po; for AUC / Cmax / Tmax / half-life / Tf Mean: healthy subjects; for Tmax: read-out: Tmax Median; for half-life: read-out: t1/2 Mean (converted)
[7] = system: pulmonary mucin production; assay: pulmonary mucin production, prolonged treatment; format: in vivo
Source text: as §1

[8] = system: neutrophil recruitment to the lungs; assay: neutrophil recruitment to the lungs in response to challenge, oral dosing; format: in vivo; settings: orally administered
Source text: as §1

[9] = clinical study in subjects with severe neutrophilic asthma; format: in vivo, human; settings: 12 weeks
Description: This study, illustrated schematically in FIG. 5, is a randomized, double-blind, placebo-controlled study in subjects with severe neutrophilic asthma.
Safety is assessed after approximately 30 subjects have completed 2 weeks of treatment in DRF. Variables include the effect on sputum neutrophils, PBNs, adverse events (AEs) and other safety data.
Primary Efficacy Endpoint: The primary efficacy endpoint is the asthma exacerbation status (‘yes’ for presence of an exacerbation, ‘no’ for absence) during the 12-week treatment period.

[10] = clinical study (iii): multiple-dose oral pharmacokinetics, Formulation 1 capsules; format: in vivo, human; settings: for AUC(0-t): read-out: AUC (0-24 hr) Mean; for Tmax: read-out: Tmax Median
[11] = system: neutrophil recruitment to the pleural cavities; assay: neutrophil recruitment to the pleural cavities in response to challenge, oral dosing; format: in vivo; settings: orally administered
Source text: as §1

[12] = single oral dose 150 mg (+Filgrastim 300 μg)
[13] = both sexes, human, plasma, oral, 10 mg, multiple-dose 10 mg, Day 1
[14] = both sexes, human, plasma, oral, 10 mg, multiple-dose 10 mg, Day 14
[15] = both sexes, human, plasma, oral, 30 mg, multiple-dose 30 mg, Day 1
[16] = both sexes, human, plasma, oral, 30 mg, multiple-dose 30 mg, Day 14
[17] = both sexes, human, plasma, oral, 50 mg, multiple-dose 50 mg, Day 1
[18] = both sexes, human, plasma, oral, 50 mg, multiple-dose 50 mg, Day 14

CC[C@@H](Nc1c(Nc2cccc(C(=O)N(C)C)c2O)c(=O)c1=O)c1ccc(C)o1 [Compound I]
sputum neutrophil and peripheral blood neutrophils [1]: reduction in sputum neutrophil and peripheral blood neutrophils
Median max values [2]: 0.5 to 2 h
histological changes in arthritic joints [3]: blocks
ability to inhibit carrageenan-induced paw edema [4]: compares very favorably with NSAIDs
Vd/F (clinical; in vivo): 1470 to 2200 L
half-life (clinical; plasma, oral): 678 to 1370 min
Cmax ([5]; fasted): 147 ng/mL
AUC ([5]; fasted, n = 10, read-out: AUC(I) Mean): 563 ng·h/mL
half-life ([5]; fasted, n = 10): 1250 min
AUC ([5]; fasted, read-out: AUC (tf) Mean): 484 ng·h/mL
Tmax ([5]; fasted): 45 min
Cmax ([5]; fed): 122 ng/mL
AUC ([5]; fed, n = 7, read-out: AUC(I) Mean): 572 ng·h/mL
half-life ([5]; fed, n = 7): 1370 min
AUC ([5]; fed, read-out: AUC (tf) Mean): 489 ng·h/mL
Tmax ([5]; fed): 120 min
mean Cmax with food lower than Compound I alone [5]: 17%
Tf Mean ([5]; fasted): 40 h
Tf Mean ([5]; fed): 32.3 h
effect of 300 μg filgrastim on the pharmacokinetic profile ([6]; 150 mg Compound I followed by filgrastim): did not alter the pharmacokinetic profile
AUC ([6]; 10 mg, single oral dose 10 mg, read-out: AUC (tf) Mean): 162 ng·h/mL
AUC ([6]; 50 mg, single oral dose 50 mg, n = 4, read-out: AUC(I) Mean): 768 ng·h/mL
AUC ([6]; 50 mg, single oral dose 50 mg, read-out: AUC (tf) Mean): 665 ng·h/mL
AUC ([6]; 100 mg, single oral dose 100 mg, read-out: AUC (tf) Mean): 827 ng·h/mL
AUC ([6]; 100 mg, single oral dose 100 mg, read-out: AUC(I) Mean): 878 ng·h/mL
AUC ([6]; 150 mg, single oral dose 150 mg, read-out: AUC (tf) Mean): 1530 ng·h/mL
AUC ([6]; 150 mg, single oral dose 150 mg, read-out: AUC(I) Mean): 1640 ng·h/mL
AUC ([6]; 200 mg, single oral dose 200 mg, read-out: AUC (tf) Mean): 1730 ng·h/mL
AUC ([6]; 200 mg, single oral dose 200 mg, read-out: AUC(I) Mean): 1810 ng·h/mL
AUC ([6]; single oral dose 150 mg (+Filgrastim 300 μg), read-out: AUC (tf) Mean): 1320 ng·h/mL
AUC ([6]; single oral dose 150 mg (+Filgrastim 300 μg), read-out: AUC(I) Mean): 1380 ng·h/mL
Cmax ([6]; single oral dose 10 mg): 73.8 ng/mL
Tmax ([6]; single oral dose 10 mg): 60 min
Cmax ([6]; single oral dose 50 mg): 153 ng/mL
half-life ([6]; single oral dose 50 mg, n = 4): 948 min
Tmax ([6]; single oral dose 50 mg): 45 min
Cmax ([6]; single oral dose 100 mg): 261 ng/mL
Tmax ([6]; single oral dose 100 mg): 45 min
half-life ([6]; single oral dose 100 mg): 708 min
Cmax [6, 12]: 292 ng/mL
Tmax [6, 12]: 45 min
half-life [6, 12]: 780 min
Cmax ([6]; single oral dose 150 mg): 364 ng/mL
Tmax ([6]; single oral dose 150 mg): 45 min
half-life ([6]; single oral dose 150 mg): 1000 min
Cmax ([6]; single oral dose 200 mg): 416 ng/mL
Tmax ([6]; single oral dose 200 mg): 37.5 min
half-life ([6]; single oral dose 200 mg): 678 min
increase of Cmax and AUC with dose ([6]; from 10 to 200 mg): dose-related, but not dose-proportional
Tf Mean ([6]; single oral dose 10 mg): 14 h
Tf Mean ([6]; single oral dose 50 mg): 46 h
Tf Mean ([6]; single oral dose 100 mg): 38 h
Tf Mean [6, 12]: 58 h
Tf Mean ([6]; single oral dose 150 mg): 64 h
Tf Mean ([6]; single oral dose 200 mg): 52 h
pulmonary mucin production ([7]; mice): blocks
pulmonary mucin production ([7]; rats): blocks
neutrophil recruitment to the lungs ([8]; mice): effectively blocks
neutrophil recruitment to the lungs ([8]; monkeys): effectively blocks
neutrophil recruitment to the lungs ([8]; rats): effectively blocks
asthma exacerbation [9]: reduction in asthma exacerbation
Cmax [10, 13]: 76 ng/mL
AUC(0-t) [10, 13]: 137 ng·h/mL
Tmax [10, 13]: 30 min
Cmax [10, 14]: 78.1 ng/mL
AUC(0-t) [10, 14]: 156 ng·h/mL
Tmax [10, 14]: 30 min
Cmax [10, 15]: 173 ng/mL
AUC(0-t) [10, 15]: 397 ng·h/mL
Tmax [10, 15]: 30 min
Cmax [10, 16]: 159 ng/mL
AUC(0-t) [10, 16]: 414 ng·h/mL
Tmax [10, 16]: 30 min
Cmax [10, 17]: 239 ng/mL
AUC(0-t) [10, 17]: 681 ng·h/mL
Tmax [10, 17]: 45 min
Cmax [10, 18]: 279 ng/mL
AUC(0-t) [10, 18]: 825 ng·h/mL
Tmax [10, 18]: 30 min
half-life ([10]; both sexes, human, plasma, oral, multiple-dose 50 mg, Day 14, n = 7, read-out: t1/2 Mean (converted)): 828 min
steady state achieved by ([10]; multiple doses): ≤ 11 days
neutrophil recruitment to the pleural cavities ([11]; mice): effectively blocks
neutrophil recruitment to the pleural cavities ([11]; rats): effectively blocks

From patent US8183287B2, “Pharmaceutical formulations and compositions of a selective antagonist of either CXCR2 or both CXCR1 and CXCR2 and methods of using the same for treating inflammatory disorders” (Schering Corporation, priority 2006, dated 2012)
